Assay results as given in the supplement of paper PMC10307832.

Key:
Test in all cases: relative viability (nuclei count vs DMSO), 5 days (fraction); higher = more cells survive
[1] = compound: CC[C@H](Nc1ncnc2[nH]cnc12)c1nc2cccc(F)c2c(=O)n1-c1ccccc1 [Idelalisib] + C[C@@H](Oc1cc(-c2cnn(C3CCNCC3)c2)cnc1N)c1c(Cl)ccc(F)c1Cl [Crizotinib] (partner 1 µM)
Summary of the method: (§1)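 Relative viability was taken as the ratio of nuclei in treated wells to nuclei in vehicle wells. Lung cancer cell lines in 1536-well plates received compounds by pin tool one day after seeding, either one drug alone or a fixed anchor-drug dose plus five library-drug doses (not always all listed) in √10 steps. Nuclei were counted on 4× images after 5 days of treatment, and values are medians of duplicate plates.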

[2] = compound: CC[C@H](Nc1ncnc2[nH]cnc12)c1nc2cccc(F)c2c(=O)n1-c1ccccc1 [Idelalisib] + O=C(c1cc(Cc2n[nH]c(=O)c3ccccc23)ccc1F)N1CCN(C(=O)C2CC2)CC1 [Olaparib] (partner 8 µM)
Summary of the method: as §1

[3] = compound: Nc1nc2[nH]cc(CCc3ccc(C(=O)N[C@@H](CCC(=O)O)C(=O)O)cc3)c2c(=O)[nH]1 [Pemetrexed] + CS(=O)(=O)CCNCc1ccc(-c2ccc3ncnc(Nc4ccc(OCc5cccc(F)c5)c(Cl)c4)c3c2)o1 [Lapatinib] (partner 2 µM)
Summary of the method: as §1

[4] = compound: Nc1nc2[nH]cc(CCc3ccc(C(=O)N[C@@H](CCC(=O)O)C(=O)O)cc3)c2c(=O)[nH]1 [Pemetrexed] + Nc1ncn([C@H]2C[C@H](O)[C@@H](CO)O2)c(=O)n1 [Decitabine] (partner 2 µM)
Summary of the method: as §1

Cell Line	relative viability ([1]; first compound 0.04 µM)	relative viability ([1]; first compound 0.1265 µM)	relative viability ([1]; first compound 0.4 µM)	relative viability ([1]; first compound 1.265 µM)	relative viability ([1]; first compound 4 µM)	relative viability ([2]; first compound 0.04 µM)	relative viability ([2]; first compound 0.1265 µM)	relative viability ([2]; first compound 0.4 µM)	relative viability ([2]; first compound 1.265 µM)	relative viability ([2]; first compound 4 µM)	relative viability ([3]; first compound 0.002 µM)	relative viability ([3]; first compound 0.006325 µM)	relative viability ([3]; first compound 0.02 µM)	relative viability ([3]; first compound 0.06325 µM)	relative viability ([3]; first compound 0.2 µM)	relative viability ([4]; first compound 0.002 µM)	relative viability ([4]; first compound 0.006325 µM)	relative viability ([4]; first compound 0.06325 µM)	relative viability ([4]; first compound 0.2 µM)	relative viability ([4]; first compound 0.02 µM)
NCI-H650	0.947	0.673	0.652	0.664	0.669	0.414	0.441	0.362	0.334	0.37	0.829	0.924	0.524	0.849	0.841	0.287	0.31	0.293	0.313	–
IA-LM	0.745	0.849	0.944	1.19	0.818	0.711	0.952	0.747	1.02	0.93	0.719	0.869	1.03	0.827	0.636	–	–	–	–	–
A-427	1.05	1.04	0.789	1.05	0.755	0.853	0.788	0.712	0.785	0.711	0.974	1.06	1.09	1.14	0.819	0.585	0.537	0.572	0.544	0.545
NCI-H2347	0.586	0.734	0.64	0.851	0.666	0.591	0.659	0.528	0.644	0.464	0.658	0.954	0.904	0.867	0.565	0.604	0.594	0.619	0.49	0.657
NCI-H1793	–	–	–	–	–	0.957	0.764	–	0.566	0.529	0.543	0.769	0.619	0.704	0.619	0.512	0.449	0.512	0.528	0.583
NCI-H1651	0.919	0.861	0.846	0.864	0.876	0.19	0.171	0.184	0.161	0.179	0.9	0.767	0.819	0.85	0.725	0.525	0.593	0.404	0.653	0.631
HCC-78	0.322	0.354	0.296	0.31	0.274	0.78	0.855	0.553	0.781	0.585	–	0.796	0.58	0.223	0.153	–	0.685	0.324	0.307	0.777
NCI-H23	0.723	0.56	0.277	0.533	0.387	0.286	0.289	0.336	0.29	0.307	0.968	0.882	1.26	1.04	0.919	0.287	0.307	0.325	0.318	0.322
LOU-NH91	0.791	0.711	0.677	0.68	0.727	0.986	0.936	0.856	0.848	0.912	0.799	0.792	0.734	0.58	0.514	0.811	0.78	0.66	0.578	0.798
LXF-289	0.839	0.818	0.778	0.909	0.825	1.13	1.07	1.02	1.06	1.04	0.822	0.862	0.949	0.899	0.874	0.363	0.393	0.403	0.404	0.38
NCI-H460	1.39	0.784	0.842	0.928	0.83	0.491	0.466	0.461	0.454	0.472	0.892	0.856	0.963	0.276	0.0581	–	0.468	0.323	0.0945	0.507
NCI-H1792	0.612	0.987	0.804	0.979	1.01	0.244	0.369	0.267	0.409	0.298	0.829	0.895	0.861	0.875	0.862	0.506	0.532	0.507	0.56	0.527
EMC-BAC-2	0.788	0.796	0.676	0.742	0.732	0.459	0.518	0.477	0.472	0.476	0.792	0.777	0.961	0.903	0.888	0.965	0.882	0.971	0.64	1
CAL-12T	0.769	0.636	0.562	0.635	0.518	0.767	0.823	0.796	0.852	0.75	0.549	0.678	0.615	0.774	0.59	–	–	–	–	–
ChaGo-K-1	1.38	1.13	1.1	1.15	1.17	0.347	0.399	0.472	0.38	0.379	–	–	–	–	–	0.538	0.531	0.531	0.368	0.552
COR-L 105	0.702	0.948	0.709	0.778	0.775	0.628	0.638	0.656	0.715	0.666	0.404	0.389	0.375	0.406	0.315	0.672	0.692	0.633	0.685	0.699
NCI-H1944	1.38	0.994	1.02	0.976	0.97	0.427	0.395	0.388	0.394	0.406	0.866	0.766	0.846	0.834	0.839	0.378	0.37	0.427	0.458	0.405
NCI-H2009	1.02	1.04	1.03	0.991	1.01	0.639	0.712	0.672	0.74	0.516	0.745	0.871	0.999	0.905	0.915	0.372	0.307	0.355	0.342	0.416
SW 900	–	–	–	–	–	0.904	0.842	0.729	0.93	0.665	–	–	–	–	–	0.342	0.433	0.377	0.424	0.553

Cell Line	relative viability ([1]; first compound 0.04 µM)	relative viability ([1]; first compound 0.1265 µM)	relative viability ([1]; first compound 0.4 µM)	relative viability ([1]; first compound 1.265 µM)	relative viability ([1]; first compound 4 µM)	relative viability ([2]; first compound 0.04 µM)	relative viability ([2]; first compound 0.1265 µM)	relative viability ([2]; first compound 0.4 µM)	relative viability ([2]; first compound 1.265 µM)	relative viability ([2]; first compound 4 µM)	relative viability ([3]; first compound 0.002 µM)	relative viability ([3]; first compound 0.006325 µM)	relative viability ([3]; first compound 0.02 µM)	relative viability ([3]; first compound 0.06325 µM)	relative viability ([3]; first compound 0.2 µM)	relative viability ([4]; first compound 0.002 µM)	relative viability ([4]; first compound 0.006325 µM)	relative viability ([4]; first compound 0.06325 µM)	relative viability ([4]; first compound 0.2 µM)	relative viability ([4]; first compound 0.02 µM)
NCI-H441	1.15	0.702	–	0.68	0.654	0.532	0.582	–	0.618	0.55	–	–	–	–	–	0.2	0.308	0.232	0.215	0.244
NCI-H1437	0.894	0.992	0.851	0.968	1.12	0.618	0.636	0.634	0.658	0.607	0.364	0.777	0.799	0.463	0.232	0.528	0.577	0.443	0.359	0.555
PC-14	0.821	0.947	0.882	0.905	0.908	0.268	0.232	0.239	0.384	0.297	0.194	0.271	0.38	0.291	0.223	0.211	0.217	0.0896	0.0739	0.301
LCLC-103H	1.03	0.986	0.957	1.09	0.839	0.728	0.791	0.721	0.757	0.705	–	–	–	–	–	0.722	0.723	0.699	0.76	0.743
COR-L23	0.881	0.678	0.67	0.712	0.393	0.368	0.326	0.348	0.327	0.316	0.853	0.815	1.05	0.365	0.192	0.419	0.465	0.225	0.188	0.554
H3255	0.77	0.898	0.757	0.876	0.734	0.567	0.555	0.534	0.573	0.513	–	0.15	0.278	0.245	0.296	0.494	0.581	0.535	0.454	0.681
NCI-H2126	1.04	1	0.967	1.03	1.02	0.933	0.916	0.834	0.972	0.898	0.75	0.747	0.789	0.747	0.739	0.55	0.588	0.608	0.567	0.569
HCC-366	0.891	0.398	0.471	0.464	0.411	0.386	0.412	0.348	0.305	0.315	1.01	1.02	1.16	0.993	0.381	0.331	0.387	0.329	0.211	0.346
EBC-1	0.202	0.185	0.172	0.204	0.202	0.721	0.777	0.763	0.65	0.588	0.22	0.193	0.205	0.214	0.192	–	–	–	–	–
NCI-H1703	0.857	0.56	0.631	0.754	0.315	0.459	0.436	0.365	0.388	0.237	1.02	0.865	1.59	0.9	0.976	–	–	–	–	–
NCI-H1395	–	–	–	–	–	0.456	0.455	0.445	0.43	0.41	0.875	1.02	1.11	0.922	0.883	0.681	0.71	0.697	0.74	0.85
NCI-H1563	0.774	0.87	0.793	0.828	0.728	–	–	–	–	–	0.83	0.804	0.921	0.971	0.986	–	–	–	–	–
NCI-H2228	0.476	0.389	0.354	0.413	0.355	0.911	0.985	0.589	0.871	0.538	0.928	0.854	1.4	0.784	0.379	–	–	–	–	–
NCI-H1299	0.99	0.969	0.919	1.08	1.01	1.01	0.982	0.941	1.02	1.06	0.926	0.92	0.964	0.955	0.918	–	–	–	–	–
NCI-H522	–	–	–	–	–	0.684	0.526	0.606	0.678	0.72	–	–	–	–	–	0.624	0.692	0.691	0.73	0.721
NCI-H1648	–	–	–	–	–	–	1.16	0.712	1.11	0.657	–	–	–	–	–	0.407	0.431	0.508	0.394	0.655
NCI-H2342	–	–	–	–	–	0.442	0.481	0.457	0.421	0.407	–	–	–	–	–	0.675	0.701	0.716	0.835	0.767
Calu-6	0.866	0.822	0.759	0.832	0.774	0.669	0.61	0.533	0.657	0.53	1.09	1.02	1.18	0.999	0.84	–	–	–	–	–
